The source of these data is patent US20080045537A1, “Chemical Compounds” (priority 2004, published 2008).

In one data set the test system is T-tropic HIV. The note with it: patients that are dual tropic or have only the T-tropic form of the virus; cited from earlier work.
In a further data set the target is T1, human CXCR4 (Homo sapiens, UniProt P61073).
T1 construct: expressed in transfected cells; host or cells: HEK-293 cells (stably expressing human macrophage scavenging receptor) transduced with human CXCR4 BacMam and Gqi5 BacMam baculoviruses
T1 sequence (P61073 whole entry): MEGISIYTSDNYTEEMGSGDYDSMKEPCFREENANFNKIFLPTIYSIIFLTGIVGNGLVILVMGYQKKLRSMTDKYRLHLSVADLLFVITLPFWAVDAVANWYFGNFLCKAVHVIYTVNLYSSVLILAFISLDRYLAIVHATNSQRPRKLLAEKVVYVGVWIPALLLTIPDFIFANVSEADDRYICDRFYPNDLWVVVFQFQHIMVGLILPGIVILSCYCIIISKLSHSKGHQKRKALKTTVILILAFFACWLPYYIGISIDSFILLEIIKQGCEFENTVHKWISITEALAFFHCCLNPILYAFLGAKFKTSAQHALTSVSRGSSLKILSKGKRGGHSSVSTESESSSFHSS
In words: Functional FLIPR assay (block of SDF-1 alpha induced [Ca2+]i change). The data set is classed as cell-based. The note with it: HEK-293 cells with human CXCR4 BacMam and Gqi5 BacMam; antagonism of SDF-1 alpha; read-out: Functional assay (pIC50) (converted). Put shortly:
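HEK-293 cells transduced with human CXCR4 (MOI=25) and Gqi5 (MOI=12.5) BacMam were expressed 24 h at 37° C, then loaded 1 h with calcium dye in probenecid medium. Block of the SDF-1 alpha (EC80) [Ca2+]i response was read on FLIPR; IC50 converted to pKb via the Leff and Dougall equation.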

For data set [1], the system named is HIV-1 IIIB (T-tropic, CXCR4 utilizing). Kind of data set: HOS HIV-1 infectivity assay. The data set is classed as cell-based. The method in brief: (§1)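 Cytotoxicity was measured by CellTiter-Glo in virus-free cultures, while antiviral activity used Steady-Glo luciferase after 96 h infection with T-tropic IIIB virus (~2 million RLU/well). Both used HOS hCXCR4/hCCR5/hCD4/pHIV-LTR-luciferase cells in 2% FCS DMEM, with compound added 1 h before virus.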

Data set [2] concerns HIV-1 gp160 (from the HXB2 HIV strain). In words: Cell/cell fusion assay (HEK-293 expressing HIV-1 tat, rev, gp160 with HOS hCXCR4/hCCR5/hCD4/pHIV-LTR-luciferase cells). Type of data set: cell-based. The note with it: Human immunodeficiency virus 1, HXB2, HEK293, 24 h, read-out: Fusion assay (pIC50), luciferase readout after 24 h (converted). The method in brief: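 HEK-293 cells BacMam-transduced (MOI 10 each, 2 mM butyric acid, 24 h) to express HIV-1 tat, rev and HXB2 gp160 were mixed with HOS hCXCR4/hCCR5/hCD4 LTR-luciferase cells, 20,000 each per well, on DMSO compound spots in 2% FCS media. Fusion read as luciferase luminescence after 24 h at 37 °C.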

Data set [3] is described as follows: Compound cytotoxicity in the absence of virus addition (CellTiter-Glo). The data set is classed as cell-based. The note with it: human; non-infected HOS cultures; read-out: Cytotox (pIC50) (converted). The method in brief:
as §1

Where [4] appears, read: Human immunodeficiency virus 1, IIIB, as determined by the infectivity assay, strain not stated in Table 2, read-out: Activity Level.
The mark [5] stands for this setting: Human immunodeficiency virus 1, HIV-1 IIIB, HOS cells, 96 h, luciferase readout, read-out: HOS (3B).

Like-named read-outs stand apart in the source and are kept apart here.

In the case of `c1cc(CN2CCCNCCNCCCNCC2)ccc1CN1CCCNCCNCCCNCC1` [AMD-3100], in the data set with T-tropic HIV, the “T-tropic HIV viral load” value is recorded as “significantly reduce T-tropic HIV viral load”.

`CN(Cc1nc2c(CNCCc3c[nH]cn3)cccc2[nH]1)C1CCCc2cccnc21` (centres unmarked) [Example 32, N-{[4-({[2-(1H-Imidazol-4-yl)ethyl]amino}methyl)-1H-benzimidazol-2-yl]methyl}-N-methyl-5,6,7,8-tetrahydro-8-quinolinamine]: the IC50 at human CXCR4 was 66.1 nM; in data set [1] (setting [4]), < 100 nM; in data set [1] (setting [5]), 45 nM; in data set [2] it was 85.1 nM. Moreover, the IC50 at 96 h in data set [3] is 7590 nM.

For the compound `CN(Cc1nc2c(CN3CCNCC3)cccc2[nH]1)C1CCCc2cccnc21` (centres unmarked) [Example 33, N-Methyl-N-{[4-(1-piperazinylmethyl)-1H-benzimidazol-2-yl]methyl}-5,6,7,8-tetrahydro-8-quinolinamine], the IC50 at human CXCR4 was 15.1 nM; in data set [1] (setting [4]), < 100 nM; in data set [1] (setting [5]), 13 nM; in data set [2], 162 nM. In data set [3], the IC50 at 96 h is > 100000 nM.

`CN(Cc1nc2c(N3CCNCC3)cccc2[nH]1)C1CCCc2cccnc21` (centres unmarked) [Example 34, N-methyl-N-{[4-(1-piperazinyl)-1H-benzimidazol-2-yl]-methyl}-5,6,7,8-tetrahydro-8-quinolinamine]: the IC50 on human CXCR4 is 8.13 nM; in data set [1] (setting [5]) it was 6.2 nM; in data set [2], 5.5 nM. For the same compound, the IC50 at 96 h in data set [3] is > 100000 nM.

`CN1CCN(c2cccc3nc(CN(C)C4CCCc5cccnc54)[nH]c23)CC1` (centres unmarked) [Example 35, N-methyl-N-{[4-(4-methyl-1-piperazinyl)-1H-benzimidazol-2-yl]methyl}-5,6,7,8-tetrahydro-8-quinolinamine]: the IC50 on human CXCR4 was 5.89 nM; in data set [1] (setting [4]) it was < 100 nM; in data set [1] (setting [5]), 1.6 nM; in data set [2], 0.389 nM. Further, the IC50 at 96 h in data set [3] is > 100000 nM.
